We go through one compound from patent US20150140109A1, “DOCETAXEL-BASED PROLONGED-RELEASE CANCER TREATMENT DRUG” (OY FILANA LTD, priority 2012, published 2015).

Molecules are shown by their SMILES. Where only a bound is given, the exact number is not on record here.

This test deals with acinic cell carcinoma of the glandula mammaria of the NZB mouse Ca 755. The test is described as follows: Antitumor activity in mice inoculated with Ca755 mammary adenocarcinoma (tumor growth kinetics, lifetime). It is filed as in vivo, C57B1/6 female mice. The procedure: To investigate the antitumor activity of a new dosage form of docetaxel in the composition with PLGA 50/50 the acinic cell carcinoma of the glandula mammaria of the NZB mouse Ca 755 was chosen. As the comparison object free docetaxel substance was used. The experiments were carried out on C57B1/6 female mice with the body weight of 18-20 g.
The anti-tumor activity of the preparations under research was estimated on the basis of the comparative analysis of tumor growth kinetics and comparing the lifetime in test groups and control groups of animals.
The introduction of both the docetaxel-based prolonged-release drug and the free docetaxel was started 48 hours after tumor inoculation.

`CC(=O)O[C@@]12CO[C@@H]1C[C@H](O)[C@@]1(C)C(=O)[C@H](O)C3=C(C)[C@@H](OC(=O)[C@H](O)[C@@H](NC(=O)OC(C)(C)C)c4ccccc4)C[C@@](O)([C@@H](OC(=O)c4ccccc4)[C@H]21)C3(C)C` [docetaxel substance, docetaxel]: the “period for which tumor growth inhibition above 50% is retained” value (even for the dose of 20 mg/kg) was at most 17 days. In addition, for the setting “introduction started 48 hours after tumor inoculation”, the “inhibiting effect upon the tumor growth” value is “strong inhibiting effect”.
